Assay results reported in patent US20210113524A1, “METHODS OF TREATING MYELOPROLIFERATIVE DISORDERS” (The Henry M. Jackson Foundation for the Advancement of …, priority 2018, published 2021).

Columns and labels:
Gata1^low mice [1] = assay: Peripheral complete blood counts with differentials in Gata1^low mice; format: in vivo, mouse; conditions: 72 mg/kg per day captopril in drinking water from 10 to 12 months, euthanized at 13.5 months
Excerpt: HEMATOL. […] Control animals received acidified water (vehicle) without captopril.
Separate mice were used for each point (n=5-6 per group).
Peripheral blood counts were studied in captopril-treated and untreated Gata1^low mice and their wild-type littermates. […] Complete blood cell counts with differentials were obtained.

[2] = system: C57BL/6 mice exposed to 7.9 Gy total body 60Co irradiation; assay: Serum growth factor and cytokine levels (MSD/ELISA) after 7.9 Gy total body irradiation; conditions: 7.9 Gy TBI
Gata1^low mice [3] = assay: Bone marrow histology and myelofibrosis (reticulin) scoring in Gata1^low mice; format: in vivo, mouse
Protocol: (§1) All animal handling procedures were performed in compliance with guidelines from the National Research Council for the ethical handling of laboratory animals and were approved by the Uniformed Services University of the Health Sciences Institutional Animal Care and Use Committee. Male and female Gata1^low and wild type CD1 mice were purchased from Jackson Laboratories (Bar Harbor, Me.). Quantitative PCR confirmed low expression of Gata1. The mice were crossed to a CD1 background to establish a line of homozygous mutant mice. Mice were kept in a barrier facility for animals accredited by the Association for Assessment and Accreditation of Laboratory Animal Care International. Mice were housed in groups of four. Animal rooms were maintained at 21±2° C., 50%±10% humidity, and 12-hour light/dark cycle with commercial, freely-available rodent ration (Harlan Teklad Rodent Diet 8604, Frederick, Md., USA).
(§2) HEMATOL. 2010; 38: 270-81. […] 2005; 29: 30-6. Based on previously measured volumes of water consumed per day by the mice, the daily water consumption was determined to be a dose of […] [Davis et al., 2010]. Control animals received acidified water (vehicle) without captopril. Animals were euthanized at 13 months of age.
(§3) Tissues were paraffin blocked and stained using standard methods for hematoxylin and eosin (H&E), Masson's trichrome, and Gomori's reticulin stain by Histoserve (Germantown, Md.). Stained slides were evaluated by a pathologist who was blinded to the identity of the treatment groups and using a published system for scoring myelofibrosis [Kvasnicka, H. M., Problems and pitfalls in grading of bone marrow fibrosis, collagen deposition and osteosclerosis—a consensus-based study, HISTOPATHOLOGY 2016; 68: 905-15]. Bone marrow sections were digitally scanned using the Zeiss Axioscan, and images were produced with Zen Lite software (Carl Zeiss, USA).
To determine the efficacy of captopril in reversing MF, morphologic and phenotypic changes in the Gata1^low mouse model were evaluated. […]

Gata1^low mice [4] = assay: Flow cytometry of CD115-/CD41+ megakaryocytes in bone marrow of Gata1^low mice; conditions: 72 mg/kg/day captopril from 10 to 12 months, euthanized at 13 months, untreated Gata1^low 1.45%, wild type 0.5%, p<0.05
Gata1^low mice [5] = assay: qRT-PCR of CD41, CD61, Col1a, Col3a2 mRNA in femur bone marrow of Gata1^low mice; conditions: 72 mg/kg/day captopril, vs untreated mice, p<0.05
Gata1^low mice [6] = assay: Flow cytometry of megakaryocytes in spleen of Gata1^low mice; conditions: captopril treatment, p<0.05
Gata1^low mice [7] = assay: Spleen histology and spleen weight in Gata1^low mice; format: in vivo, mouse
Protocol: as §1, §2, §3
Levels of megakaryocytes and extramedullary hematopoiesis were compared in the spleens of wild-type, untreated Gata1^low, and captopril-treated Gata1^low mice. […]

[8] = system: mice exposed to total body radiation; conditions: mice exposed to total body radiation (Davis et al. 2010); cited from earlier work
Gata1^low mice [9] = assay: qRT-PCR of CD41, CD61, Col1a, Col3a2 mRNA in spleen-derived cells of Gata1^low mice; conditions: captopril treated Gata1^low mice

C[C@H](CS)C(=O)N1CCC[C@H]1C(=O)O [captopril]
platelet count (Gata1^low mice [1]): did not ameliorate | eosinophils (Gata1^low mice [1]; vs untreated Gata1^low): normalized | lymphocytes (Gata1^low mice [1]; vs untreated Gata1^low): normalized | neutrophils (Gata1^low mice [1]; vs untreated Gata1^low): normalized | white blood cells (WBC) (Gata1^low mice [1]; vs untreated Gata1^low): normalized | increase in serum EPO ([2]; 4 days post-irradiation, captopril 13 mg/kg/day in drinking water, same with or without captopril): ~10 fold | serum EPO level ([2]; 7 days post-irradiation, captopril 13 mg/kg/day, radiation-plus-vehicle 8.66±0.9, mean±SEM): 0.57 ± 0.7 ng/mL | serum EPO level ([2]; 14 days post-irradiation, captopril 13 mg/kg/day, radiation-plus-vehicle 288±140, mean±SEM): 140 ± 24 ng/mL | serum EPO level ([2]; 21 days post-irradiation, captopril vs vehicle irradiated group): similarly elevated | IL-6 levels post-irradiation ([2]; any time points (3-30 days), captopril 13 mg/kg/day): did not significantly suppress | serum EPO level ([2]; by 30 days post-irradiation, captopril-treated animals): declined sharply | radiation induced G-CSF ([2]; days 7 and 14 post-irradiation, captopril 13 mg/kg/day from 48 hours post-irradiation for 14 days, p<0.05 vs vehicle): significantly suppressed | radiation-induced SAA1 levels ([2]; days 7 and 14 post-irradiation, delayed (48 hours) low-dose captopril 13 mg/kg/day, p<0.05 vs vehicle): significantly attenuated | megakaryocytic hyperplasia in bone marrow (histology) (Gata1^low mice [3]; captopril for two months (10-12 months of age), evaluated at 13 months, untreated Gata1^low: moderate): only mild megakaryocytic hyperplasia | averaged bone marrow reticulin score (Gata1^low mice [3]; captopril for two months, score out of 3, untreated Gata1^low 1.8, wild type 0): 0.5 | severity of bone marrow fibrosis (histology) (Gata1^low mice [3]; captopril in drinking water (79 mg/kg/day) from 10-12 months of age, evaluated at 13 months, vs untreated Gata1^low): reduced the severity off bone marrow fibrosis | number of CD115-/CD41+ megakaryocytes in bone marrow (Gata1^low mice [4]): 0.6 % of total live cells | decrease of CD41 marker (qRT-PCR), bone marrow (Gata1^low mice [5]): approximately 3 fold | decrease of CD61 marker (qRT-PCR), bone marrow (Gata1^low mice [5]): ~2 fold | decrease of Col1a expression, bone marrow (Gata1^low mice [5]): approximately 15 fold | decrease of Col3a2 expression, bone marrow (Gata1^low mice [5]): approximately 4 fold | decrease in the frequency of megakaryocytes as a percentage of total live cells, spleen (Gata1^low mice [6]): ~2 fold | decrease in splenic weight (Gata1^low mice [7]; captopril for 2 months, vs untreated Gata1^low mice, p<0.05): ~2 fold | extramedullary hematopoiesis in spleen (histology) (Gata1^low mice [7]; captopril for two months, untreated Gata1^low: significant): moderate amounts of extramedullary hematopoiesis | atypical megakaryocytes in spleen (histology) (Gata1^low mice [7]; captopril for two months, vs untreated Gata1^low): reduced numbers of atypical megakaryocytes | blood cell recovery (red blood cells, reticulocytes, platelets) and recovery of colony forming units (CFU-GM, CFU-M, total) [8]: improving blood cell recovery | survival rates [8]: improved survival rates | Col3a2 expression (qPCR), spleen (Gata1^low mice [9]): trend toward reduced Col3a2 expression, although this did not reach significance | decrease of CD41 marker (qRT-PCR), spleen (Gata1^low mice [9]; p<0.05): about 6 fold | decrease of CD61 marker (qRT-PCR), spleen (Gata1^low mice [9]; p<0.05): about 5 fold | reduction in the level of Col1a expression (qPCR), spleen (Gata1^low mice [9]; p<0.05): ~4 fold
